Source: US4160829A, “Antibacterial 1,2,4-oxadiazolylacetamido cephalosporins” (Gist-Brocades N.V., priority 1972, dated 1979)
Values after ≈ are worked out from the molar mass of the structure shown.

Tests used:
acute toxicity in mice = details: mouse, in vivo, ip; mice (Swiss), one intraperitoneal administration
Procedure: (a) For sodium 7-[(3-methyl-1,2,4-oxadiazol-5-yl)-acetamido]-cephalosporanate (as prepared in Example 10), the acute toxicity was determined in mice (Swiss) with one intraperitoneal administration. The LD50 appeared to be >6000 mg/kg (Cephalotin-LD50 >6000 mg/kg).

Prot.rettg. A 821 = assay: agar serial dilution test; format: cell-based, Proteus rettgeri; details: agar serial dilution, 24 hours, 37° C.
Strep. faec. L 80 = assay: agar serial dilution test; format: cell-based, Streptococcus faecalis; details: agar serial dilution, 24 hours, 37° C.
Proteus rettgeri = assay: protection test; format: in vivo; details: Providencia rettgeri, sc; protection test, s.c.; read-out: ED50
Pseud.aerug. 2396 = assay: agar serial dilution test; format: cell-based; details: agar serial dilution, 24 hours, 37° C.
Staph.aureus A 355 [1] = assay: agar serial dilution test; details: agar serial dilution, 24 hours, 37° C.; penicillinase-producing strain
[2] = tested on: Pseud.aerug. Wyeth A 1058; assay: agar serial dilution test; format: cell-based; details: agar serial dilution, 24 hours, 37° C.
Salm.dubl. P 43 = assay: agar serial dilution test; format: cell-based, Salmonella dublin; details: agar serial dilution, 24 hours, 37° C.
Bac.Subt.ATCC 6633 = assay: agar serial dilution test; format: cell-based, Bacillus subtilis; details: agar serial dilution, 24 hours, 37° C.
[3] = tested on: Staph. aureus pen.resistant; assay: protection test; format: in vivo; details: Staphylococcus aureus, sc
Prot.mirab. H 3 = assay: agar serial dilution test; format: cell-based, Proteus mirabilis; details: Proteus mirabilis, 24 h, read-out: minimal inhibitory concentration (MIC), agar serial dilution, 24 hours, 37° C.
Staph.aureus A 2001 [4] = assay: micro serial dilution test; format: cell-based, Staphylococcus aureus; details: micro serial dilution (in brackets), about 18 hours, 30° C. or 37° C.
Staph.aureus A 355 [5] = assay: micro serial dilution test; format: cell-based, Staphylococcus aureus; details: micro serial dilution (in brackets), about 18 hours, 30° C. or 37° C.; penicillinase-producing strain
Shig.equir. T 3 = assay: agar serial dilution test; format: cell-based; details: 24 hours, 37° C.
Prot.mirab. L 93 = assay: agar serial dilution test; format: cell-based, Proteus mirabilis; details: Proteus mirabilis; agar serial dilution, 24 hours, 37° C.; read-out: minimal inhibitory concentration (MIC)
Staph.aureus A 2001 [6] = assay: agar serial dilution test; format: cell-based, Staphylococcus aureus; details: agar serial dilution, 24 hours, 37° C.
Prot.morg. 2241 = assay: agar serial dilution test; format: cell-based; details: agar serial dilution, 24 hours, 37° C.
Past.multo. A 723 = assay: agar serial dilution test; format: cell-based, Pasteurella multocida; details: agar serial dilution, 24 hours, 37° C.
Bruc.melit. A 488 = assay: microbe, parasite or virus in culture; format: cell-based; details: Brucella melitensis, 24 h, read-out: minimal inhibitory concentration (MIC)
Staph.aureus A 2000 [7] = assay: agar serial dilution test; format: cell-based, Staphylococcus aureus; details: agar serial dilution, 24 hours, 37° C.
Salm.typh. R 127 = assay: agar serial dilution test; format: cell-based; details: 24 hours, 37° C.
Escherichia coli = assay: protection test; format: in vivo; details: ip
Prot.mirab. A 1200 = assay: agar serial dilution test; format: cell-based, Proteus mirabilis; details: agar serial dilution, 24 hours, 37° C.
Esch.coli U 20 = assay: agar serial dilution test; format: cell-based, Escherichia coli; details: Escherichia coli, U20; agar serial dilution, 24 hours, 37° C.; read-out: minimal inhibitory concentration (MIC)
Staph.aureus A 321 = assay: agar serial dilution test; format: cell-based, Staphylococcus aureus; details: agar serial dilution, 24 hours, 37° C.
Klebsiella pneumoniae = assay: protection test; format: in vivo; details: ip, protection test, i.p., read-out: ED50
Haem.infl. A 1030 = assay: micro serial dilution test; format: cell-based; details: micro serial dilution (in brackets), about 18 hours, 30° C. or 37° C.
in vivo = assay: in vivo; parameters: species or system rabbits; details: rabbit, im, 50 mg/kg
Procedure: Blood levels of the above mentioned test compound and of cephalotin were determined after an intramuscular administration of 50 mg/kg of these compounds in an aqueous solution in rabbits. After half an hour for the compound of Example 10, a value of 38.3 μg/ml was found and for cephalotin 33.9 μg/ml. In urine, 35.9% of the administered compound of Example 10 was retrieved, while in the case of cephalotin 22.2% was retrieved within six hours.

Pseud.aerug. H 10 = assay: agar serial dilution test; format: cell-based; details: agar serial dilution, 24 hours, 37° C.
Strep.haem. A 266 = assay: agar serial dilution test; format: cell-based, Streptococcus haemolyticus; details: Streptococcus; agar serial dilution, 24 hours, 37° C.; read-out: minimal inhibitory concentration (MIC)
Staph.aureus A 2000 [8] = assay: micro serial dilution test; format: cell-based, Staphylococcus aureus; details: micro serial dilution (in brackets), about 18 hours, 30° C. or 37° C.

SMILES: CC(=O)OCC1=C(C(=O)O)N2C(=O)[C@@H](NC(=O)Cc3nc(C)no3)[C@H]2SC1 [Example 10, 7-[(3-methyl-1,2,4-oxadiazol-5-yl)-acetamido]-cephalosporanic acid]
- LD50 (acute toxicity in mice): > 6000 mg/kg
- minimal inhibitory concentration (MIC) (Prot.rettg. A 821): 3 µg/mL (≈ 7.57 µM)
- minimal inhibitory concentration (MIC) (Strep. faec. L 80): 50 µg/mL (≈ 126 µM)
- ED50 (Proteus rettgeri): 1.25 mg/kg
- minimal inhibitory concentration (MIC) (Pseud.aerug. 2396): > 100 µg/mL
- minimal inhibitory concentration (MIC) (Staph.aureus A 355 [1]): 1 µg/mL (≈ 2.52 µM)
- minimal inhibitory concentration (MIC) [2]: > 100 µg/mL
- minimal inhibitory concentration (MIC) (Salm.dubl. P 43): 3 µg/mL (≈ 7.57 µM)
- minimal inhibitory concentration (MIC) (Bac.Subt.ATCC 6633): 0.25 µg/mL (≈ 0.631 µM)
- ED50 [3]: 31 mg/kg
- MIC (Prot.mirab. H 3): 12.5 µg/mL (≈ 31.5 µM)
- minimal inhibitory concentration (MIC) (Staph.aureus A 2001 [4]): 0.3 µg/mL (≈ 0.757 µM)
- minimal inhibitory concentration (MIC) (Staph.aureus A 355 [5]): 0.6 µg/mL (≈ 1.51 µM)
- minimal inhibitory concentration (MIC) (Shig.equir. T 3): 3 µg/mL (≈ 7.57 µM)
- MIC (Prot.mirab. L 93): 1.5 µg/mL (≈ 3.78 µM)
- minimal inhibitory concentration (MIC) (Staph.aureus A 2001 [6]): 1 µg/mL (≈ 2.52 µM)
- minimal inhibitory concentration (MIC) (Prot.morg. 2241): 50 µg/mL (≈ 126 µM)
- minimal inhibitory concentration (MIC) (Past.multo. A 723): 1.5 µg/mL (≈ 3.78 µM)
- MIC (Bruc.melit. A 488): 6 µg/mL (≈ 15.1 µM)
- minimal inhibitory concentration (MIC) (Staph.aureus A 2000 [7]): 1 µg/mL (≈ 2.52 µM)
- minimal inhibitory concentration (MIC) (Salm.typh. R 127): 3 µg/mL (≈ 7.57 µM)
- ED50 (Escherichia coli): 120 mg/kg
- minimal inhibitory concentration (MIC) (Prot.mirab. A 1200): 6 µg/mL (≈ 15.1 µM)
- MIC (Esch.coli U 20): 6 µg/mL (≈ 15.1 µM)
- minimal inhibitory concentration (MIC) (Staph.aureus A 321): 0.25 µg/mL (≈ 0.631 µM)
- ED50 (Klebsiella pneumoniae): 2.3 mg/kg
- minimal inhibitory concentration (MIC) (Haem.infl. A 1030): 125 µg/mL (≈ 315 µM)
- concentration at 0.5 h (in vivo): 38300 ng/mL
- minimal inhibitory concentration (MIC) (Pseud.aerug. H 10): > 100 µg/mL
- MIC (Strep.haem. A 266): 0.03 µg/mL (≈ 0.0757 µM)
- minimal inhibitory concentration (MIC) (Staph.aureus A 2000 [8]): 0.9 µg/mL (≈ 2.27 µM)

SMILES: O=C(O)Cc1nc(Cc2ccccc2)no1 [Example 12A, 3-benzyl-1,2,4-oxadiazol-5-yl-acetic acid]
- antiphlogistic activity (antiphlogistic activity): antiphlogistic activity
